Assay results: PubChem BioAssay AID1194 (EPA DSSTox, 2008)
Activity calls are given as the source filed them.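 Rule for the calls: active = chemicals rated mutagenic or weakly mutagenic in the Salmonella bacterial test by one literature review, or positive overall by another; inconclusive = no clear call, values can overlap the other calls; inactive = the rest.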

What follows are molecules tested on Salmonella typhimurium Ames mutagenicity, literature compiled (assay: DSSTox (CPDBAS) Carcinogenic Potency Database Salmonella Mutagenicity).
Procedure, shortened: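 Calls derive from published evaluations rather than new testing; overall "positive" in EPA Gene-Tox, or "mutagenic"/"weakly mutagenic" per Zeiger, counts as active.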
In the case of `c1ccoc1`, the outcome is reported as “inactive”. With `NC(=O)c1cnccn1` the outcome was “inactive; active”. For `C=CBr`, the outcome was “active; inactive”. With `O=c1oc2c(O)c(O)cc3c(=O)oc4c(O)c(O)cc1c4c23` the outcome was “inactive”. `O=[N+]([O-])c1ccc(-c2nc(N3CCOCC3)c3ccccc3n2)s1` was tested, and the outcome was “active”. `ClCC1CO1` (configuration not stated) was tested, and the outcome was “active; inactive”. `CCN(CC)N=O` was tested, and the outcome was “active; inactive”. In the case of `Nc1ccc(N=Nc2ccccc2)c(N)n1`, the outcome is reported as “inactive”. With `c1ccc2c(c1)[nH]c1cnccc12` the outcome was “active”. With `FC(Cl)(Cl)Cl` the outcome was “inactive; active”. For `CNN`, the outcome was “active; inactive”. `CC(C)Oc1ccc(Nc2ccccc2)cc1` was tested, and the outcome was “inactive; active”. For `NNC(=O)c1ccncc1`, the outcome was “active; inactive”. For `ClC(Cl)=C(c1ccc(Cl)cc1)c1ccc(Cl)cc1`, the outcome was “inactive; active”. For `C=CCO`, the outcome was “inactive”. With `Nc1ccc(-c2ccc(N)cc2)cc1` the outcome was “active”. With `ClCC(Br)CBr` (configuration not stated) the outcome was “active; inactive”. With `NN` the outcome was “active; inactive”. For `Clc1ccc(C(c2ccc(Cl)cc2)C(Cl)(Cl)Cl)cc1`, the outcome was “inactive”. For `Cc1ccc2c(c1[N+](=O)[O-])C(=O)c1ccccc1C2=O`, the outcome was “active; inactive”. In the case of `CC(O)CNCC(C)O` (configuration not stated), the outcome is reported as “inactive”. For `O[C@@H]([C@H](O)[C@@H](O)CBr)[C@@H](O)CBr`, the outcome was “active”. In the case of `CCCCNC(=O)NS(=O)(=O)c1ccc(C)cc1`, the outcome is reported as “inactive; active”. `Oc1ccc(Cl)cc1Cc1ccccc1` was tested, and the outcome was “inactive; active”. `c1ccncc1` was tested, and the outcome was “inactive”. For `O=C(O)COc1ccc(Cl)cc1Cl`, the outcome was “inactive”. In the case of `N[C@@H](CCC(=O)O)C(=O)O`, the outcome is reported as “inactive; active”. In the case of `CCCCOC(=O)COc1ccc(Cl)cc1Cl`, the outcome is reported as “inactive; active”. In the case of `OCc1ccccc1`, the outcome is reported as “inactive”. For `O=C1NC(=O)C(c2ccccc2)(c2ccccc2)N1`, the outcome was “inactive”. With `ClC1(Cl)C2(Cl)C3(Cl)C4(Cl)C(Cl)(Cl)C5(Cl)C3(Cl)C1(Cl)C5(Cl)C24Cl` (configuration not stated) the outcome was “inactive”. In the case of `CN(N=O)C(=O)c1ccccc1`, the outcome is reported as “active”. With `O=Cc1ccccc1` the outcome was “inactive; active”. With `CC(=O)O[C@@H]1[C@@H](O)C2OC3C=C(C)C(=O)C(O)[C@@]3(CO)[C@]1(C)[C@]21CO1` (some centres not stated) the outcome was “inactive; active”. With `Cc1cc(O)c2c(c1)C(=O)c1cc(O)cc(O)c1C2=O` the outcome was “active”. With `CC(N)=O` the outcome was “inactive; active”. For `CC(C)Oc1ccccc1OC(=O)N(C)N=O`, the outcome was “active”. For `C=CCOC(=O)CC(C)C`, the outcome was “inactive; active”. `CC(N)=S` was tested, and the outcome was “inactive; active”. `CCOP(=S)(OCC)Oc1cc(C)nc(C(C)C)n1` was tested, and the outcome was “inactive; active”. With `O=NN1CCCCCC1` the outcome was “active”. In the case of `COc1cc(/C=C/C(=O)CC(=O)/C=C/c2ccc(O)c(OC)c2)ccc1O`, the outcome is reported as “inactive”. With `CCOP(=S)(OCC)SC1OCCOC1SP(=S)(OCC)OCC` (configuration not stated) the outcome was “active; inactive”. In the case of `c1ccc(-c2ccccc2)cc1`, the outcome is reported as “inactive”. With `CCC(O)OC(O)CC` (configuration not stated) the outcome was “inactive; active”. With `C#C[C@]1(O)CC[C@H]2[C@@H]3CCC4=C(CCC(=O)C4)[C@H]3CC[C@@]21C` the outcome was “inactive; active”. `COc1cc2c(c3oc(=O)c4c(c13)CCC4=O)C1C=COC1O2` (configuration not stated) was tested, and the outcome was “active”. For `O=[O+][O-]`, the outcome was “active; inactive”. `O=S1(=O)OCCO1` was tested, and the outcome was “inactive”. With `Cc1cccc2cccnc12` the outcome was “active”. `CC(=O)Nc1ccc(C(=O)CCl)cc1` was tested, and the outcome was “active”. `C=CCc1ccc2c(c1)OCO2` was tested, and the outcome was “inactive; active”. `C/C=C/C=C/C(=O)O` was tested, and the outcome was “inactive”. In the case of `O=NN(CCCl)C(=O)N[C@@H]1[C@@H](O)[C@H](O)[C@@H](CO)O[C@@H]1O`, the outcome is reported as “active; inactive”. In the case of `c1ccc(Nc2ccc(Nc3ccccc3)cc2)cc1`, the outcome is reported as “active; inactive”. `NCCc1ccc(O)c(O)c1` was tested, and the outcome was “active”. `[O]=[Mo](=[O])=[O]` was tested, and the outcome was “inactive; active”. With `O=C1C=CC(=O)C=C1` the outcome was “inactive; active”. With `COc1cc2c(c3oc(=O)c4c(c13)CC[C@H]4O)[C@@H]1C=CO[C@H]1O2` the outcome was “active”. With `O=P(OCCCl)(OCCCl)OCCCl` the outcome was “inactive”. With `O=NN1CCN(N=O)CC1` the outcome was “active; inactive”. With `Cc1ccc2c(c1N)C(=O)c1ccccc1C2=O` the outcome was “active”. With `Cc1ccc(NC(N)=O)cc1` the outcome was “inactive; active”. `Nc1ccc2c(c1)C(=O)c1ccccc1C2=O` was tested, and the outcome was “active”. `O=[N+]([O-])c1ccc(-c2nc(NCCO)c3ccccc3n2)s1` was tested, and the outcome was “active”. In the case of `CNc1ccc(N(CCO)CCO)cc1[N+](=O)[O-]`, the outcome is reported as “active”. For `O=C(O)CN(CC(=O)O)CC(=O)O`, the outcome was “inactive; active”. `C[C@]12CC[C@@H]3c4ccc(O)cc4CC[C@H]3[C@@H]1CC[C@@H]2O` was tested, and the outcome was “inactive”. In the case of `CCSCCC(N)C(=O)O` (configuration not stated), the outcome is reported as “inactive”. With `CN(C)c1ccc(N=NS(=O)(=O)O)cc1` the outcome was “active; inactive”. `CN(CCc1ccccc1)N=O` was tested, and the outcome was “active”. For `CC1=CC(=C(c2ccc(N)cc2)c2ccc(N)cc2)C=CC1=N`, the outcome was “active; inactive”. For `ClCCCl`, the outcome was “active”. For `O=Nc1ccc(Nc2ccccc2)cc1`, the outcome was “active”. For `Cc1cccc(N=Nc2ccc(N(C)C)cc2)c1`, the outcome was “active; inactive”. For `C/C=C1/C[C@@H](C)[C@](O)(CO)C(=O)OCC2=CCN3CC[C@@H](OC1=O)[C@@H]23`, the outcome was “active; inactive”. In the case of `Cc1cccc(C)c1N`, the outcome is reported as “active”. `CNC[C@H](O)c1ccc(O)c(O)c1` was tested, and the outcome was “inactive; active”. In the case of `CC[C@H]1OC(=O)[C@H](C)[C@@H](O[C@H]2C[C@@](C)(OC)[C@@H](O)[C@H](C)O2)[C@H](C)[C@@H](O[C@@H]2O[C@H](C)C[C@H](N(C)C)[C@H]2O)[C@](C)(O)C[C@@H](C)C(=O)[C@H](C)[C@@H](O)[C@]1(C)O`, the outcome is reported as “inactive”. `Cc1ccc(S(=O)(=O)Oc2ccc(N=Nc3ccc(-c4ccc(N=Nc5c(O)ccc6cc(S(=O)(=O)O)cc(S(=O)(=O)O)c56)c(C)c4)cc3C)cc2)cc1` was tested, and the outcome was “active”. `COc1cc(-c2ccc(N=Nc3c(S(=O)(=O)O)cc4cc(S(=O)(=O)O)cc(N)c4c3O)c(OC)c2)ccc1N=Nc1c(S(=O)(=O)O)cc2cc(S(=O)(=O)O)cc(N)c2c1O` was tested, and the outcome was “active”. `Nc1ccc(N)c(Cl)c1` was tested, and the outcome was “active; inactive”. `C=O` was tested, and the outcome was “active; inactive”. For `CC1(C)COC1=O`, the outcome was “active”. In the case of `OC(O)C(Cl)(Cl)Cl`, the outcome is reported as “active”. With `Nc1cc(S(=O)(=O)[O-])cc2cc(S(=O)(=O)[O-])c(N=Nc3ccc(-c4ccc(N=Nc5c(S(=O)(=O)[O-])cc6cc(S(=O)(=O)[O-])cc(N)c6c5O)c(O)c4)cc3O)c(O)c12.[Cu].[Cu].[Na+].[Na+].[Na+].[Na+]` the outcome was “inactive; active”. With `OCCO` the outcome was “inactive”. `O=NN1CCC1` was tested, and the outcome was “active; inactive”. `c1ccc(NNc2ccccc2)cc1` was tested, and the outcome was “active”. In the case of `O=P1(NCCCl)OCCCN1CCCl` (configuration not stated), the outcome is reported as “active; inactive”. In the case of `CC=O`, the outcome is reported as “inactive; active”. `CC(C)CN(N=O)C(=N)N[N+](=O)[O-]` was tested, and the outcome was “active”. For `Oc1ccc2ccccc2c1N=Nc1ccccc1`, the outcome was “active; inactive”. With `COc1ccc(N)c(C)c1` the outcome was “active; inactive”. In the case of `ClC(Cl)C(Cl)(Cl)Cl`, the outcome is reported as “inactive”. `CN(C)C(=S)SSC(=S)N(C)C` was tested, and the outcome was “active”. `CC(C)(Oc1ccc(C2CCCc3ccccc32)cc1)C(=O)O` (configuration not stated) was tested, and the outcome was “inactive”. For `CCOC(=O)CC(SP(=O)(OC)OC)C(=O)OCC` (configuration not stated), the outcome was “inactive”. In the case of `CCc1ccccc1`, the outcome is reported as “inactive”. In the case of `O=C1OC(c2ccc(O)cc2)(c2ccc(O)cc2)c2ccccc21`, the outcome is reported as “inactive”. In the case of `CN(C)c1ccc(N=Nc2ccccc2)cc1`, the outcome is reported as “active; inactive”. `O=CCCCC=O` was tested, and the outcome was “active”. In the case of `O=S1(=O)CC=CC1`, the outcome is reported as “inactive; active”. `CCCCCCCCS(=O)C(C)Cc1ccc2c(c1)OCO2` (configuration not stated) was tested, and the outcome was “inactive; active”. In the case of `Nc1ccc(O)c(N)c1`, the outcome is reported as “active; inactive”. In the case of `CCCCN(N=O)C(N)=O`, the outcome is reported as “active”. `C=C1C/C(=C/C)C(=O)O[C@@H]2CCN3CC=C(COC(=O)[C@@]1(O)CO)[C@H]23` was tested, and the outcome was “active; inactive”. For `CN(C)/N=N/c1nc[nH]c1C(N)=O`, the outcome was “active”. With `NC(=O)N/N=C/c1ccc([N+](=O)[O-])o1` the outcome was “active”. With `OCC(O)CCl` (configuration not stated) the outcome was “active; inactive”. For `Nc1ccccc1-c1ccccc1`, the outcome was “active”. `OCCOCCO` was tested, and the outcome was “inactive; active”. In the case of `O=C(O)c1ccccc1`, the outcome is reported as “inactive”. `ClC/C=C/CCl` was tested, and the outcome was “active; inactive”. With `CCOc1ccc(NC(C)=O)cc1` the outcome was “active; inactive”. For `Cc1cc(=O)[nH]c(=S)[nH]1`, the outcome was “inactive”. For `Nc1ncn([C@@H]2O[C@H](CO)[C@@H](O)[C@H]2O)c(=O)n1`, the outcome was “active”.
